{"source": "patent EP1530463B1", "about": "“L-ARGININE CONTAINING PHARMACEUTICAL COMPOSITION” (Vasopharm Biotech GmbH, priority 2002, dated 2004)", "origin": "cited, not measured here", "note": "Like-named read-outs stand apart in the source and are kept apart here.", "data": [{"compound": "N=C(N)NCCC[C@H](N)C(=O)O", "note": "[L-arginine]", "values": [{"measurement": "pKa", "setting": "guanidino group", "result": 12.48}]}, {"compound": "O=C1O[C@H]([C@@H](O)CO)C(O)=C1O", "note": "[ascorbic acid]", "values": [{"measurement": "pKa", "setting": "organic acid", "result": 4.17}]}]}
